Results reported in patent US9018192B2, “Unitary pharmaceutical dosage form” (Bristol-Myers Squibb & Gilead Sciences, LLC, priority 2005, dated 2015).
Structures can show the parent of a compound that is named as a salt.

Test: chemical stability of tenofovir DF in the dosage form (stability studies)
Format: physicochemical

Compound: CC(C)OC(=O)OCOP(=O)(CO[C@H](C)Cn1cnc2c(N)ncnc21)OCOC(=O)OC(C)C [tenofovir DF, tenofovir disoproxil fumarate]
- compatibility of efavirenz formulation with tenofovir DF (attributed to the surfactant sodium lauryl sulfate in the efavirenz portion): unexpectedly incompatible
- stability of tenofovir DF in preparation (increased proportion of excipients, wet granulation of the three API combination): highly unstable
- stability of tenofovir DF in combination tablet (three drugs in unitary, essentially homogeneous composition manufactured by wet granulation, stability studies): highly unstable and rapidly degraded
